Literature values in publication PMC2737817 (Bioorganic & medicinal chemistry letters, 2009).

Experiments:
[1] = test system: GPI/LMMP; conditions: read-out: Functional Bioactivity GPI (IC50); ± S.E.M.; ref [42]; SEM
[2] = test system: MVD; conditions: read-out: Functional Bioactivity MVD (IC50); ± S.E.M.; ref [42]; SEM

Row | Substance | IC50 [1] [nM] | IC50 [2] [nM]
1 | Tyr-Pro-Phe-Phe-NH2 [EM-2] | 15 ± 2 | 
2 | Tyr-Pro-Trp-Phe-NH2 [EM-1] | 28 ± 3 | 1710 ± 110
